Experimental data from PMC10880116, “Identification of potential anti-inflammatory components in Moutan Cortex by bio-affinity ultrafiltration coupled with ultra-performance liquid chromatography mass spectrometry” (Frontiers in Pharmacology, 2024).

Columns and labels:
RAW264.7 cells = test: Cell viability assay (MTT); format: cell-based, mouse; conditions: 12 h
Experimental: RAW264.7 cells originated from mouse macrophage cell line were purchased from the American Type Culture Collection. DMEM medium containing 5% fetal bovine serum and 1% Penicillin G Streptomycin was used to culture the cells under 37°C in a humidified atmosphere of 5% CO2.
Then DEME with 20% MTT solution was added, followed by a 37°C incubation for extra 4 h. After the supernatant was removed, DMSO was added to dissolve the insoluble formazan product. The optical density was measured by a microplate reader at 490 nm. In this experiment, the formula used to calculate cell viability was as follows: Cell viability %=ODexperimental group– ODblank group/ODcontrol group– ODblank group×100%

COX-2 [1] = molecular target: T1, COX-2 (Homo sapiens, UniProt P35354); test: COX-2 inhibitory activity (COX-2 Inhibitor Screening Kit, fluorescence)
T1 sequence (P35354 18-604): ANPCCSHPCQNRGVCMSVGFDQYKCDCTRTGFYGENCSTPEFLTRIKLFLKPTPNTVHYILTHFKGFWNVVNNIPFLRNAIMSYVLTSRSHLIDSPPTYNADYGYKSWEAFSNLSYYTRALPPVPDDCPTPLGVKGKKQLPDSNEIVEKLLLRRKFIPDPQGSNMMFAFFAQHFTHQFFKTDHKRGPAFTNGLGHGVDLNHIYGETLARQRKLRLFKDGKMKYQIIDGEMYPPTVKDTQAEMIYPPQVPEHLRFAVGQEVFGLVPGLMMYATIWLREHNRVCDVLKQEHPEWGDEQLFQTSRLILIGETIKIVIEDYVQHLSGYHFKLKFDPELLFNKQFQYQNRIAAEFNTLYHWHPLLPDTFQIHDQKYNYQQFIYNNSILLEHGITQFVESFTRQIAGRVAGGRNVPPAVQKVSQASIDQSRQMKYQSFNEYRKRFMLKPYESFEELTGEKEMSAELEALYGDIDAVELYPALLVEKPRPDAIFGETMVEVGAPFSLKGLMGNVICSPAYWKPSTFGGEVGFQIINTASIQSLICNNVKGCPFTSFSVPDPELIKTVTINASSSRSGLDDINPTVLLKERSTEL
Experimental: In this experiment, the inhibitory effect was determined by using COX-2 Inhibitor Screening Kits. A 96-well black plate was employed, where COX-2 cofactor working solution (5 μL), COX-2 assay buffer (75 μL), test solution (5 μL), and COX-2 working solution (5 uL) were mixed and incubated for 10 min at 37°C in the dark. Then 5 μL of probe solution, together with 5 μL of COX-2 substrate solution, was added immediately. After a 37°C incubation in the dark for another 5 min, the fluorescence value was determined at an excitation wavelength of 560 nm and emission wavelength of 590 nm. […] Besides, COX-2 Assay Buffer was used in the blank control group to replace COX-2 working solution. MC extract or potential inhibitors were dissolved with DMSO as the test solution in the sample groups.
Where, F1, F2, and F3 respectively indicate the fluorescence value of the three groups—100% enzyme activity control group, sample group and blank control group.

COX-2 [2] = molecular target: T1, COX-2; conditions: 20 μM, mixture of positive and negative control, affinity ultrafiltration
Experimental: An experimental group and inactivated enzyme group were set up in this study for comparison. 40 μL of 100 mg/mL MC extract as well as 280 μL of COX-2 (100 U/mL) was transferred to EP tube in the experimental group, in contrast to the control group where 280 μL of inactivated COX-2 (boiled in the water bath for 30 min) was used as the substitute of the activated enzyme. The tubes from both groups were incubated at 37°C in the dark for 40 min, aiming to create an optimal condition under which the potentially suitable ligands would completely combined with the enzyme. A centrifugal filter was employed for ultrafiltration at 15000 × g for 15 min. Afterwards, 300 μL of PBS was added to the samples, and the unbound small molecules were removed by 15000 × g centrifugation for 15 min. […]
UPLC-Q-Exactive-Orbitrap-MS was performed to analyze the compounds in the filtrate using Thermo Scientific Orbitrap Fusion Tribrid Mass Spectrometer (Thermo Fisher Scientific, United States) and Ultimate 3,000 Ultra-performance liquid chromatograph, at the same time with Waters ACQUITY UPLC BEH RP18 (2.1 mm × 100 mm, 1.7 μm) employed for chromatographic analysis. […] The measurements were read at the detection wavelength of 254 nm. […] By comparing peak areas of two groups, specific ligands binding to COX-2 were determined. […]

| IC50 (COX-2 [1]) | SMILES | Concentration exhibiting no cytotoxicity against RAW264.7 cells (RAW264.7 cells; MTT) | Concentration exhibiting no cytotoxicity against RAW264.7 cells (RAW264.7 cells; mouse) | Response value (HPLC peak) in active enzyme group compared with inactivated enzyme control group (COX-2 [2]) |
| --- | --- | --- | --- | --- |
| 12.1 µM | COC(=O)c1cc(O)c(O)c(O)c1 [Methyl gallate] | ≤ 10 µM |  |  |
| 220 µM | O=C(OC[C@H]1O[C@@H](OC(=O)c2cc(O)c(O)c(O)c2)[C@H](OC(=O)c2cc(O)c(O)c(O)c2)[C@@H](OC(=O)c2cc(O)c(O)c(O)c2)[C@@H]1OC(=O)c1cc(O)c(O)c(O)c1)c1cc(O)c(O)c(O)c1 [PGG, 1,2,3,4,6-Penta-O-galloyl-β-D-glucopyranose] |  | ≤ 150 µM |  |
| 1.04 µM | O=C(OC[C@H]1O[C@@H](OC(=O)c2cc(O)c(O)c(O)c2)[C@H](OC(=O)c2cc(O)c(O)c(O)c2)[C@@H](OC(=O)c2cc(O)c(O)c(O)c2)[C@@H]1O)c1cc(O)c(O)c(O)c1 [TGG, 1,2,3,6-Tetra-O-galloyl-β-D-glucose] | ≤ 20 µM |  |  |

Second part, the compound before the results:

| SMILES | IC50 (COX-2 [1]) | Concentration exhibiting no cytotoxicity against RAW264.7 cells (RAW264.7 cells; MTT) | Concentration exhibiting no cytotoxicity against RAW264.7 cells (RAW264.7 cells; mouse) | Response value (HPLC peak) in active enzyme group compared with inactivated enzyme control group (COX-2 [2]) |
| --- | --- | --- | --- | --- |
| O=C(O)c1cc(O)c(O)c(O)c1 [Gallic acid] | 1520 µM | ≤ 250 µM |  |  |
| C[C@@]12C[C@@]3(O)O[C@@H](O1)[C@]1(COC(=O)c4ccccc4)[C@H]3C[C@@]12O[C@@H]1O[C@H](COC(=O)c2cc(O)c(O)c(O)c2)[C@@H](O)[C@H](O)[C@H]1O [Galloylpaeoniflorin] | 6.68 ± 1.29 µM | ≤ 100 µM |  |  |
| Nc1ncnc2c1ncn2[C@@H]1O[C@H](CO)[C@@H](O)[C@H]1O [adenosine, Adenosine] |  |  |  | no evident change |
